Results as given in patent US4663327A, “1-heteroaryl-4-aryl-pyrazolin-5-ones” (priority 1984, dated 1987).
≈ marks a conversion by molar mass, not a printed value.

Experiments:
Leptosphaeria nodorum = Leptosphaeria nodorum test (wheat)/protective; format: in vivo; details: sprayed, evaluation 10 days after inoculation
Procedure: Leptosphaeria nodorum test (wheat)/protective Solvent: 100 parts by weight of dimethylformamide Emulsifier: 0.25 parts by weight of alkylaryl polyglycol ether To produce a suitable preparation of active compound, 1 part by weight of active compound is mixed with the stated amounts of solvent and emulsifier, and the concentrate is diluted with water to the desired concentration. To test for protective activity, young plants are sprayed with the preparation of active compound until dew-moist. After the spray coating has dried on, the plants are sprayed with a conidia suspension of Leptosphaeria nodorum. The plants remain for 48 hours in an incubation cabinet at 20° C. and 100% relative atmospheric humidity. The plants are placed in a greenhouse at a temperature of about 15° C. and a relative atmospheric humidity of about 80%. Evaluation is effected 10 days after the inoculation.

Cochliobolus sativus = Cochliobolus sativus test (barley)/protective; format: in vivo; details: sprayed, evaluation 7 days after inoculation
Procedure: Cochliobolus sativus test (barley)/protective Solvent: 100 parts by weight of dimethylformamide Emulsifier: 0.25 parts by weight of alkylaryl polyglycol ether To produce a suitable preparation of active compound, 1 part by weight of active compound is mixed with the stated amounts of solvent and emulsifier, and the concentrate is diluted with water to the desired concentration. To test for protective activity, young plants are sprayed with the preparation of active compound until dew-moist. After the spray coating has dried on, the plants are sprayed with a conidia suspension of Cochliobolus sativus. The plants remain in an incubation cabinet for 48 hours at 20° C. and 100% relative atmospheric humidity. The plants are placed in a greenhouse at a temperature of about 20° C. and a relative atmospheric humidity of about 80%. Evaluation is carried out 7 days after the inoculation.

Botrytis cinerea = test: Botrytis test (BEAN)/protective; format: in vivo; details: sprayed, infected spots on leaves evaluated 3 days after inoculation
Procedure: Botrytis test (BEAN)/protective Solvent: 4.7 parts by weight of acetone Emulsifier: 0.3 parts by weight alkyl aryl polyglycol ether To produce a suitable preparation of active compound, 1 pat by weight of active compound is mixed with the stated amounts of solvent and emulsifier, and the concentrate is diluted with water to the desired concentration. To test for protective activity, young plants are sprayed with the preparation of active compound until dripping wet. After the spray coating has dried on, 2 small pieces of agar covered with Botrytis cinerea are placed on each leaf. The inoculated plants are placed in a darkened humidity chamber at 20° C. 3 days after the inoculation, the size of the infected spots on the leaves is evaluated.

Pyricularia oryzae = format: in vivo; details: rice, sprayed, disease infestation 4 days after inoculation
Trichoderma viride = test: MIC on fungi in agar; details: 336 h
Procedure: (§1) After storage for 2 weeks at 28° C. and 60 to 70% relative atmospheric humidity, the MIC is determined.

Aspergillus niger = test: MIC on fungi in agar; details: 336 h
Procedure: as §1

Sclerophoma pityophila = test: MIC on fungi in agar; details: Sydowia polyspora, 336 h
Procedure: as §1

Coniophora puteana = test: MIC on fungi in agar; details: 336 h
Procedure: as §1

Chaetomium globosum = test: MIC on fungi in agar; details: 336 h
Procedure: as §1

Aureobasidium pullulans = test: MIC on fungi in agar; details: 336 h
Procedure: as §1

Penicillium glaucum = test: MIC on fungi in agar; details: 336 h
Procedure: as §1

Lentinus tigrinus = test: MIC on fungi in agar; details: 336 h
Procedure: as §1

Polyporus versicolor = test: MIC on fungi in agar; details: Trametes versicolor, 336 h
Procedure: as §1

Alternaria tenuis = test: MIC on fungi in agar; details: Alternaria alternata, 336 h
Procedure: as §1

Phytophthora infestans = format: in vivo; details: tomato, sprayed, evaluation 3 days after inoculation

## Cc1[nH]n(-c2ncccn2)c(=O)c1-c1ccccc1 [Example 106]
Leptosphaeria nodorum
  protective activity: clearly superior activity compared with the prior art

## O=c1c(-c2ccc(Cl)cc2)c[nH]n1-c1ccccn1 [Example 9]
Leptosphaeria nodorum
  protective activity: clearly superior activity compared with the prior art
Cochliobolus sativus
  protective activity: clearly superior activity compared with the prior art

## O=c1c(-c2cc(C(F)(F)F)ccc2Cl)c[nH]n1-c1ccccn1 [Example 26]
Leptosphaeria nodorum
  protective activity: clearly superior activity compared with the prior art
Cochliobolus sativus
  protective activity: clearly superior activity compared with the prior art

## O=c1c(-c2c(F)cccc2Cl)c[nH]n1-c1ncccn1 [Example 87]
Botrytis cinerea
  protective activity: clearly superior activity compared with the prior art

## Cc1ccccc1-c1c[nH]n(-c2ncc(Cl)cn2)c1=O [Example 111]
Botrytis cinerea
  protective activity: clearly superior activity compared with the prior art

## O=c1c(-c2cc(C(F)(F)F)cc(C(F)(F)F)c2)c[nH]n1-c1ncccn1 [Example 104]
Pyricularia oryzae
  protective activity: clearly superior activity compared with the prior art

## O=c1c(-c2ccc(C(F)(F)F)cc2)c[nH]n1-c1ccccn1 [Example 25]
Pyricularia oryzae
  protective activity: clearly superior activity compared with the prior art

## O=c1c(-c2c(F)cccc2Cl)c[nH]n1-c1ccccn1 [Example 11]
Pyricularia oryzae
  protective activity: clearly superior activity compared with the prior art
Botrytis cinerea
  protective activity: clearly superior activity compared with the prior art

## COc1ccc(-c2c[nH]n(-c3ccccn3)c2=O)cc1 [Example 15]
Trichoderma viride
  MIC: 1000 µg/mL (≈ 3740 µM)
Aspergillus niger
  MIC: 20 µg/mL (≈ 74.8 µM)
Sclerophoma pityophila
  MIC: 50 µg/mL (≈ 187 µM)
Coniophora puteana
  MIC: 5 µg/mL (≈ 18.7 µM)
Chaetomium globosum
  MIC: 0.5 µg/mL (≈ 1.87 µM)
Aureobasidium pullulans
  MIC: 50 µg/mL (≈ 187 µM)
Leptosphaeria nodorum
  protective activity: clearly superior activity compared with the prior art
Penicillium glaucum
  MIC: 75 µg/mL (≈ 281 µM)
Lentinus tigrinus
  MIC: 50 µg/mL (≈ 187 µM)
Polyporus versicolor
  MIC: 20 µg/mL (≈ 74.8 µM)
Alternaria tenuis
  MIC: 50 µg/mL (≈ 187 µM)

## O=c1c(-c2ccc(Cl)cc2Cl)c[nH]n1-c1ccccn1 [Example 12]
Botrytis cinerea
  protective activity: clearly superior activity compared with the prior art
Cochliobolus sativus
  protective activity: clearly superior activity compared with the prior art

## O=c1c(-c2ccc(C(F)(F)F)cc2)c[nH]n1-c1ncccn1 [Example 100]
Trichoderma viride
  MIC: 500 µg/mL (≈ 1630 µM)
Aspergillus niger
  MIC: 500 µg/mL (≈ 1630 µM)
Sclerophoma pityophila
  MIC: 20 µg/mL (≈ 65.3 µM)
Coniophora puteana
  MIC: 5 µg/mL (≈ 16.3 µM)
Chaetomium globosum
  MIC: 1 µg/mL (≈ 3.27 µM)
Aureobasidium pullulans
  MIC: 50 µg/mL (≈ 163 µM)
Leptosphaeria nodorum
  protective activity: clearly superior activity compared with the prior art
Cochliobolus sativus
  protective activity: clearly superior activity compared with the prior art
Penicillium glaucum
  MIC: 10 µg/mL (≈ 32.7 µM)
Phytophthora infestans
  protective activity: clearly superior activity compared with the prior art
Lentinus tigrinus
  MIC: 15 µg/mL (≈ 49 µM)
Polyporus versicolor
  MIC: 5 µg/mL (≈ 16.3 µM)
Alternaria tenuis
  MIC: 50 µg/mL (≈ 163 µM)

## O=c1c(-c2ccccc2Br)c[nH]n1-c1ncccn1 [Example 86]
Trichoderma viride
  MIC: 35 µg/mL (≈ 110 µM)
Aspergillus niger
  MIC: 10 µg/mL (≈ 31.5 µM)
Sclerophoma pityophila
  MIC: 10 µg/mL (≈ 31.5 µM)
Coniophora puteana
  MIC: 5 µg/mL (≈ 15.8 µM)
Chaetomium globosum
  MIC: 1 µg/mL (≈ 3.15 µM)
Aureobasidium pullulans
  MIC: 20 µg/mL (≈ 63.1 µM)
Penicillium glaucum
  MIC: 50 µg/mL (≈ 158 µM)
Lentinus tigrinus
  MIC: 2 µg/mL (≈ 6.31 µM)
Polyporus versicolor
  MIC: 2 µg/mL (≈ 6.31 µM)
Alternaria tenuis
  MIC: 20 µg/mL (≈ 63.1 µM)

## Cc1cc(-n2[nH]cc(-c3ccc(C(F)(F)F)cc3)c2=O)nc(C)n1 [Example 122]
Pyricularia oryzae
  protective activity: clearly superior activity compared with the prior art

## O=c1c(-c2ccc(Cl)cc2Cl)c[nH]n1-c1ncccn1 [Example 88]
Botrytis cinerea
  protective activity: clearly superior activity compared with the prior art

## O=c1c(-c2ccc(Cl)c(Cl)c2)c[nH]n1-c1ccccn1 [Example 13]
Phytophthora infestans
  protective activity: clearly superior activity compared with the prior art

## Cc1ccccc1-c1c[nH]n(-c2ncccn2)c1=O [Example 96]
Botrytis cinerea
  protective activity: clearly superior activity compared with the prior art

## O=c1c(-c2cc(C(F)(F)F)cc(C(F)(F)F)c2)c[nH]n1-c1ccccn1 [Example 28]
Pyricularia oryzae
  protective activity: clearly superior activity compared with the prior art
Leptosphaeria nodorum
  protective activity: clearly superior activity compared with the prior art
Cochliobolus sativus
  protective activity: clearly superior activity compared with the prior art

## O=c1c(-c2ccccc2)c[nH]n1-c1ncccn1 [Example 81, 1-pyrimid-2-yl-4-phenyl-pyrazolin-5-one]
Trichoderma viride
  MIC: 75 µg/mL (≈ 315 µM)
Aspergillus niger
  MIC: 10 µg/mL (≈ 42 µM)
Sclerophoma pityophila
  MIC: 7.5 µg/mL (≈ 31.5 µM)
Coniophora puteana
  MIC: 0.5 µg/mL (≈ 2.1 µM)
Chaetomium globosum
  MIC: 3.5 µg/mL (≈ 14.7 µM)
Aureobasidium pullulans
  MIC: 50 µg/mL (≈ 210 µM)
Penicillium glaucum
  MIC: 50 µg/mL (≈ 210 µM)
Lentinus tigrinus
  MIC: 5 µg/mL (≈ 21 µM)
Polyporus versicolor
  MIC: 2 µg/mL (≈ 8.39 µM)
Alternaria tenuis
  MIC: 75 µg/mL (≈ 315 µM)

## O=c1c(-c2ccc(Cl)c(Cl)c2)c[nH]n1-c1ncccn1 [Example 89]
Botrytis cinerea
  protective activity: clearly superior activity compared with the prior art

## Cc1cc(-n2[nH]cc(-c3ccc(C(F)(F)F)cc3)c2=O)cc(C)n1 [Example 80]
Pyricularia oryzae
  protective activity: clearly superior activity compared with the prior art

## O=c1c(-c2ccc(OC(F)(F)F)cc2)c[nH]n1-c1ncccn1 [Example 93]
Phytophthora infestans
  protective activity: clearly superior activity compared with the prior art

## COc1ccccc1-c1c[nH]n(-c2ncccn2)c1=O [Example 90]
Trichoderma viride
  MIC: 150 µg/mL (≈ 559 µM)
Aspergillus niger
  MIC: 35 µg/mL (≈ 130 µM)
Sclerophoma pityophila
  MIC: 15 µg/mL (≈ 55.9 µM)
Coniophora puteana
  MIC: 5 µg/mL (≈ 18.6 µM)
Chaetomium globosum
  MIC: 15 µg/mL (≈ 55.9 µM)
Aureobasidium pullulans
  MIC: 75 µg/mL (≈ 280 µM)
Penicillium glaucum
  MIC: 35 µg/mL (≈ 130 µM)
Lentinus tigrinus
  MIC: 100 µg/mL (≈ 373 µM)
Polyporus versicolor
  MIC: 10 µg/mL (≈ 37.3 µM)
Alternaria tenuis
  MIC: 75 µg/mL (≈ 280 µM)

## O=c1c(-c2ccccc2F)c[nH]n1-c1ccccn1 [Example 5]
Trichoderma viride
  MIC: 35 µg/mL (≈ 137 µM)
Aspergillus niger
  MIC: 3.5 µg/mL (≈ 13.7 µM)
Sclerophoma pityophila
  MIC: 15 µg/mL (≈ 58.8 µM)
Coniophora puteana
  MIC: 2 µg/mL (≈ 7.84 µM)
Chaetomium globosum
  MIC: 0.5 µg/mL (≈ 1.96 µM)
Aureobasidium pullulans
  MIC: 20 µg/mL (≈ 78.4 µM)
Leptosphaeria nodorum
  protective activity: clearly superior activity compared with the prior art
Cochliobolus sativus
  protective activity: clearly superior activity compared with the prior art
Penicillium glaucum
  MIC: 5 µg/mL (≈ 19.6 µM)
Lentinus tigrinus
  MIC: 20 µg/mL (≈ 78.4 µM)
Polyporus versicolor
  MIC: 7.5 µg/mL (≈ 29.4 µM)
Alternaria tenuis
  MIC: 20 µg/mL (≈ 78.4 µM)

## O=c1c(-c2ccccc2Cl)c[nH]n1-c1ncccn1 [Example 84]
Trichoderma viride
  MIC: 35 µg/mL (≈ 128 µM)
Aspergillus niger
  MIC: 10 µg/mL (≈ 36.7 µM)
Sclerophoma pityophila
  MIC: 10 µg/mL (≈ 36.7 µM)
Coniophora puteana
  MIC: 2 µg/mL (≈ 7.33 µM)
Pyricularia oryzae
  protective activity: clearly superior activity compared with the prior art
Chaetomium globosum
  MIC: 1.5 µg/mL (≈ 5.5 µM)
Aureobasidium pullulans
  MIC: 20 µg/mL (≈ 73.3 µM)
Botrytis cinerea
  protective activity: clearly superior activity compared with the prior art
Penicillium glaucum
  MIC: 20 µg/mL (≈ 73.3 µM)
Lentinus tigrinus
  MIC: 50 µg/mL (≈ 183 µM)
Polyporus versicolor
  MIC: 35 µg/mL (≈ 128 µM)
Alternaria tenuis
  MIC: 50 µg/mL (≈ 183 µM)

## O=c1c(-c2ccccc2Cl)c[nH]n1-c1ccccn1 [Example 7]
Pyricularia oryzae
  protective activity: clearly superior activity compared with the prior art

## Cc1ccc(-c2c[nH]n(-c3cc(C)c4ccccc4n3)c2=O)cc1 [Example 68]
Pyricularia oryzae
  protective activity: clearly superior activity compared with the prior art

## O=c1c(-c2ccc(Cl)cc2)c[nH]n1-c1ncccn1 [Example 85, 1-pyrimid-2-yl-4-(4-chlorophenyl)-pyrazolin-5-one]
Trichoderma viride
  MIC: 100 µg/mL (≈ 367 µM)
Aspergillus niger
  MIC: 5 µg/mL (≈ 18.3 µM)
Sclerophoma pityophila
  MIC: 20 µg/mL (≈ 73.3 µM)
Coniophora puteana
  MIC: 3.5 µg/mL (≈ 12.8 µM)
Chaetomium globosum
  MIC: 1 µg/mL (≈ 3.67 µM)
Aureobasidium pullulans
  MIC: 50 µg/mL (≈ 183 µM)
Penicillium glaucum
  MIC: 10 µg/mL (≈ 36.7 µM)
Lentinus tigrinus
  MIC: 7.5 µg/mL (≈ 27.5 µM)
Polyporus versicolor
  MIC: 5 µg/mL (≈ 18.3 µM)
Alternaria tenuis
  MIC: 50 µg/mL (≈ 183 µM)

## COc1ccc(-c2c[nH]n(-c3ncccn3)c2=O)cc1 [Example 91]
Trichoderma viride
  MIC: 200 µg/mL (≈ 746 µM)
Aspergillus niger
  MIC: 50 µg/mL (≈ 186 µM)
Sclerophoma pityophila
  MIC: 15 µg/mL (≈ 55.9 µM)
Coniophora puteana
  MIC: 5 µg/mL (≈ 18.6 µM)
Chaetomium globosum
  MIC: 20 µg/mL (≈ 74.6 µM)
Aureobasidium pullulans
  MIC: 150 µg/mL (≈ 559 µM)
Penicillium glaucum
  MIC: 10 µg/mL (≈ 37.3 µM)
Lentinus tigrinus
  MIC: 100 µg/mL (≈ 373 µM)
Polyporus versicolor
  MIC: 20 µg/mL (≈ 74.6 µM)
Alternaria tenuis
  MIC: 100 µg/mL (≈ 373 µM)

## O=c1c(-c2cccc(C(F)(F)F)c2)c[nH]n1-c1ccccn1 [Example 24]
Leptosphaeria nodorum
  protective activity: clearly superior activity compared with the prior art
Cochliobolus sativus
  protective activity: clearly superior activity compared with the prior art

## O=c1c(-c2ccc(SC(F)(F)F)cc2)c[nH]n1-c1ccccn1 [Example 19]
Leptosphaeria nodorum
  protective activity: clearly superior activity compared with the prior art

## O=c1c(-c2cccc(OC(F)(F)F)c2)c[nH]n1-c1ncccn1 [Example 92]
Cochliobolus sativus
  protective activity: clearly superior activity compared with the prior art
Phytophthora infestans
  protective activity: clearly superior activity compared with the prior art
